Source: patent publication US10670605B2, “Cysteine reactive probes and uses thereof” (The Scripps Research Institute, priority 2015, dated 2020)
Each block holds one compound with its values, some of them ahead of it.

What was measured:
Experiment in all cases: Competitive isoTOP-ABPP in situ (fragment-treated cells)
Type in all cases: cell-based
[1] = target: T1, cysteines in MDA-MB-231 and Ramos cells (Homo sapiens, UniProt O43175); conditions: 200 μM, insitu
T1 sequence (O43175 1-533): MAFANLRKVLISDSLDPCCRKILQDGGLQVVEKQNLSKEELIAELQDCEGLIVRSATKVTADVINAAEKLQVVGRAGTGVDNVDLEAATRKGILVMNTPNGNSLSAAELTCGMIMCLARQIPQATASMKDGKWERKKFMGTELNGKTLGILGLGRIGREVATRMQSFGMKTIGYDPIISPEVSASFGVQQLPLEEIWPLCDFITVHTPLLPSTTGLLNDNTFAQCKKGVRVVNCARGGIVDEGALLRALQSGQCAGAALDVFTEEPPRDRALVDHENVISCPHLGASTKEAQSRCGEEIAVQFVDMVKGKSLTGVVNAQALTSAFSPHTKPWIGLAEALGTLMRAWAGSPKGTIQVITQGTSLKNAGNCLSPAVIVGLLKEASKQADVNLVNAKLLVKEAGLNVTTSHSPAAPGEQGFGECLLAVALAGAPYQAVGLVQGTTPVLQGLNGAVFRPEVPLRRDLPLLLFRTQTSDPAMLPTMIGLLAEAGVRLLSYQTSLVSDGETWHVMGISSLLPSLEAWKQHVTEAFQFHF

[2] = target: T2, cysteines in MDA-MB-231 and Ramos cells (Homo sapiens, UniProt P29590)
T2 sequence (P29590 1-882): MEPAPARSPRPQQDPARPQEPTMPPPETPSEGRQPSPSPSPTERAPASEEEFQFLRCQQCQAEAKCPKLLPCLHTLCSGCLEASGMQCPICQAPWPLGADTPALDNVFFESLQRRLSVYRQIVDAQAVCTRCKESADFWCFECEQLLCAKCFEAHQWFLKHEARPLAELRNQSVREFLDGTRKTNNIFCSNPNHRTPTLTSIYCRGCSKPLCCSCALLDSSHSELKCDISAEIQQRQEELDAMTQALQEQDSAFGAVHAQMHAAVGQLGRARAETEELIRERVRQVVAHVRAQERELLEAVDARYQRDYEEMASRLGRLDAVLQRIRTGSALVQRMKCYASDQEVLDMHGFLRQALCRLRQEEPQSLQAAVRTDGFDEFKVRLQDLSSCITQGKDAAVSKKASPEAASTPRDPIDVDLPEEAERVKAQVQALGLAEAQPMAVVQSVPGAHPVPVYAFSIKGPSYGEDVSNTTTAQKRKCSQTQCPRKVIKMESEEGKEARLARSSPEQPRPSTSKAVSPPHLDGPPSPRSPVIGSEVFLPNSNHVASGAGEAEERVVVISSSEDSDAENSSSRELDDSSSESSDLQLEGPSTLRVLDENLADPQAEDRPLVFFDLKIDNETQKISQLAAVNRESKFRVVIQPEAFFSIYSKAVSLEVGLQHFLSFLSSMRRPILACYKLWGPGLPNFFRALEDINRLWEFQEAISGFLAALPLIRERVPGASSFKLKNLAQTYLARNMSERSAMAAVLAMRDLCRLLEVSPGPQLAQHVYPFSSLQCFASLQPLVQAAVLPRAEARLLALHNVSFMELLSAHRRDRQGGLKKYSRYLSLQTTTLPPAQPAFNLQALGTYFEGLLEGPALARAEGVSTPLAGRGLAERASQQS

[3] = target: cysteines in MDA-MB-231 and Ramos cells (Homo sapiens, UniProt O15446); conditions: 200 μM, insitu, 231
Sequence of cysteines in MDA-MB-231 and Ramos cells (Homo sapiens, UniProt O15446) (O15446 whole entry): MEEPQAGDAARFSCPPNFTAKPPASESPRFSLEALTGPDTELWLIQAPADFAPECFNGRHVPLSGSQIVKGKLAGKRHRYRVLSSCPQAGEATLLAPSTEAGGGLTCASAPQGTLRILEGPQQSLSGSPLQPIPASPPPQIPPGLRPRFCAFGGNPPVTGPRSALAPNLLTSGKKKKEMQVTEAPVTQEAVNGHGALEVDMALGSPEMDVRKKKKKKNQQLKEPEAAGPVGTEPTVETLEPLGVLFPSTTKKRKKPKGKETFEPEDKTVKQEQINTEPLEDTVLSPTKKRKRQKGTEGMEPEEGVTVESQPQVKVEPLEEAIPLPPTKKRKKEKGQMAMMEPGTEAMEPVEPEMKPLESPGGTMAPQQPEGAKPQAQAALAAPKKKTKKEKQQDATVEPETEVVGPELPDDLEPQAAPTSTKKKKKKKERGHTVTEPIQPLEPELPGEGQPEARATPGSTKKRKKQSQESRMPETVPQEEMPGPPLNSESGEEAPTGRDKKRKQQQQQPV

[4] = target: cysteines in MDA-MB-231 and Ramos cells (Homo sapiens, UniProt O14933); conditions: for isoTOP-ABPP ratio, cysteine O14933_C98 / isoTOP-ABPP ratio O14933_C98: 200 μM, insitu
Sequence of cysteines in MDA-MB-231 and Ramos cells (Homo sapiens, UniProt O14933) (O14933 whole entry): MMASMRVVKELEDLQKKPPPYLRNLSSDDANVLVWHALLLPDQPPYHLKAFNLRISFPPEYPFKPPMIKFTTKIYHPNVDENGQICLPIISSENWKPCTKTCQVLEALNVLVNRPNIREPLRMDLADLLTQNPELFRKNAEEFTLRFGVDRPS

[5] = target: T3, cysteines in MDA-MB-231 and Ramos cells (Homo sapiens, UniProt O75717)
T3 sequence (O75717 1-1129): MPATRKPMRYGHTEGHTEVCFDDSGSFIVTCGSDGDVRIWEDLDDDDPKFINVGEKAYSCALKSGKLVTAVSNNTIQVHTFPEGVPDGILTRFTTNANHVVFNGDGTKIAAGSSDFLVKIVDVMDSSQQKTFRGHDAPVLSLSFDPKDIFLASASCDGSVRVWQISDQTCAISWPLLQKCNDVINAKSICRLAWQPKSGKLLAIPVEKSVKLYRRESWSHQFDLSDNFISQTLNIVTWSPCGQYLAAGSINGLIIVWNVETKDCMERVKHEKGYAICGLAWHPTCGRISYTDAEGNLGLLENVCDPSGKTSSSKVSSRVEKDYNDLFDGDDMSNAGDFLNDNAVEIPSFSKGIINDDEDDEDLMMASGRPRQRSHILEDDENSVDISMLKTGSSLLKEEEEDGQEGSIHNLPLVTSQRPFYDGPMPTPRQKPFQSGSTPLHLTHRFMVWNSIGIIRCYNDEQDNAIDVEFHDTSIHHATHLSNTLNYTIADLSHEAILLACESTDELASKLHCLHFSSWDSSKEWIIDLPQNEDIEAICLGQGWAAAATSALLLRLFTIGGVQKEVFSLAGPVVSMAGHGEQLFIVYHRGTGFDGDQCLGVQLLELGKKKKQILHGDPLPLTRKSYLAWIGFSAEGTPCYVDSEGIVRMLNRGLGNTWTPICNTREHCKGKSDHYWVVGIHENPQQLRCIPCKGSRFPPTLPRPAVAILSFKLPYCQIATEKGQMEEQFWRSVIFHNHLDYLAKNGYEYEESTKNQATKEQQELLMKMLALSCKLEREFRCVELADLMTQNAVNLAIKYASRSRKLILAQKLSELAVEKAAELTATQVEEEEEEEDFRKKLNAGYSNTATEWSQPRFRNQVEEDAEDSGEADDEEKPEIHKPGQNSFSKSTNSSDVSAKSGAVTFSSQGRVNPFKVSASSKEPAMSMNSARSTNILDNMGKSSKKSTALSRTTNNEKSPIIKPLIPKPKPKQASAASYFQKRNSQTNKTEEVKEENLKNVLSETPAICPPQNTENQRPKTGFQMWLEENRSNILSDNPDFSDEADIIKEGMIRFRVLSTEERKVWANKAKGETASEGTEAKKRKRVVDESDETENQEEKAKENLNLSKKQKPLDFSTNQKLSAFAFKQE

isoTOP-ABPP reactivity O43175_C369 PHGDH [1]; 231: 20.0
isoTOP-ABPP reactivity P29590_C389 PML ([2]; 200 μM, insitu, 231): 15.6
isoTOP-ABPP reactivity O15446_C86 CD3EAP [3]: 3.9
SMILES: COc1ccc2c(c1)CCCN2C(=O)CCl [compound 2]

isoTOP-ABPP reactivity O14933_C98 UBE2L6 ([4]; 100 μM in situ 231): 3.0
SMILES: COc1ccc(C2CC(c3cccs3)=NN2C(=O)CCl)cc1 (centres unmarked) [compound 4]

isoTOP-ABPP reactivity O75717_C773 WDHDl ([5]; 200 μM, insitu, 231): 4.2
SMILES: COc1cc2c(cc1OC)CN(C(=O)CCl)CC2 [compound 8]

isoTOP-ABPP ratio, cysteine O75717_C773 ([5]; 200 μM, insitu, 231): 2.2
isoTOP-ABPP ratio, cysteine O43175_C369 ([1]; ramos): 2.4
isoTOP-ABPP ratio P29590_C389 ([2]; 200 μM, insitu, 231): 7.9
isoTOP-ABPP ratio, cysteine O15446_C86 [3]: 4.7
isoTOP-ABPP ratio, cysteine O14933_C98 [4]; 231: 20.0
isoTOP-ABPP ratio, cysteine O14933_C98 ([4]; ramos): 3.2
SMILES: O=C(CCl)N1CCN(S(=O)(=O)c2ccccc2F)CC1 [compound 10]

isoTOP-ABPP ratio, cysteine O75717_C773 ([5]; 100 μM in situ 231): 1.2
isoTOP-ABPP ratio P29590_C389 ([2]; 100 μM in situ 231): 0.5
SMILES: Cn1cc(S(=O)(=O)N2CCOCC2)cc1C(=O)NC(=O)CCl [compound 11]

isoTOP-ABPP ratio, cysteine O15446_C86 [3]: 3.3
SMILES: O=C(CCl)NC(=O)NC12CC3CC(CC(C3)C1)C2 [compound 12]

isoTOP-ABPP ratio, cysteine O75717_C773 ([5]; 200 μM, insitu, 231): 1.1
isoTOP-ABPP ratio, cysteine O43175_C369 ([1]; ramos): 2.0
isoTOP-ABPP ratio P29590_C389 ([2]; 200 μM, insitu, 231): 1.3
isoTOP-ABPP ratio, cysteine O15446_C86 [3]: 1.3
SMILES: O=C(CCl)NCCc1c[nH]c2ccccc12 [compound 13]

isoTOP-ABPP ratio, cysteine O43175_C369 [1]; 231: 1.0
isoTOP-ABPP ratio P29590_C389 ([2]; 200 μM, insitu, 231): 20.0
isoTOP-ABPP ratio, cysteine O15446_C86 [3]: 1.7
isoTOP-ABPP ratio, cysteine O14933_C98 [4]; 231: 0.7
SMILES: O=C(CCl)NC12CC3CC(CC(C3)C1)C2 [compound 21]

isoTOP-ABPP ratio P29590_C389 ([2]; 200 μM, insitu, 231): 0.5
reactivity profile of liganded cysteine P29590_C213 with fragment electrophile (isoTOP-ABPP ratio) ([2]; cysteine P29590_C213, fragment 200 μM, in situ, 231 (MDA-MB-231) cells): 0.8
SMILES: CC(C)CCOCCNC(=O)CCl [compound 27]

isoTOP-ABPP ratio O43175_C369 ([1]; ramos): 1.1
isoTOP-ABPP ratio O14933_C98 ([4]; ramos): 2.4
SMILES: O=C(CCl)N1CCN(CC(=O)N2CCOCC2)CC1 [compound 29]

isoTOP-ABPP ratio O43175_C369 [1]; 231: 20.0
isoTOP-ABPP ratio O43175_C369 ([1]; ramos): 20.0
isoTOP-ABPP ratio P29590_C389 ([2]; 200 μM, insitu, 231): 1.1
isoTOP-ABPP ratio O14933_C98 ([4]; ramos): 1.9
SMILES: C=CC(=O)N(Cc1cccnc1)c1cc(C(F)(F)F)cc(C(F)(F)F)c1 [compound 31]

isoTOP-ABPP ratio O75717_C773 ([5]; 200 μM, insitu, 231): 2.3
isoTOP-ABPP ratio P29590_C389 ([2]; 200 μM, insitu, 231): 2.2
isoTOP-ABPP ratio O14933_C98 [4]; 231: 1.6
SMILES: C=CC(=O)Nc1cc(F)c(N2CCN(C(=O)OC(C)(C)C)CC2)c(F)c1 [compound 38]

isoTOP-ABPP ratio O75717_C773 ([5]; 200 μM, insitu, 231): 1.0
isoTOP-ABPP ratio P29590_C389 ([2]; 200 μM, insitu, 231): 0.4
isoTOP-ABPP ratio O14933_C98 [4]; 231: 0.5
SMILES: Cc1ccc(C=C(C#N)C(=O)NCCN2CCOCC2)cc1 [compound 41]

isoTOP-ABPP ratio O75717_C773 ([5]; 200 μM, insitu, 231): 3.6
isoTOP-ABPP ratio P29590_C389 ([2]; 200 μM, insitu, 231): 3.4
isoTOP-ABPP ratio O15446_C86 [3]: 4.6
isoTOP-ABPP ratio O14933_C98 [4]; 231: 20.0
SMILES: CC1CCc2ccccc2N1C(=O)CCl (centres unmarked) [compound 45]

isoTOP-ABPP ratio P29590_C389 ([2]; 200 μM, insitu, 231): 0.9
SMILES: O=C(CCl)Nc1cccc2ncccc12 [compound 51]
